Assay results: US10792483B2, “Tumor vaccination” (XAX KFT., priority 2012, dated 2020)
Entries after “also recorded” stand apart in the source; their conditions may differ.

Tests used:
[1] = tested on: non small cells lung cancer; assay: Case report, patient treated with radiotherapy, oncothermia and GM-CSF (Example 13); type: in vivo, human; conditions: for Response of far-distant metastases (abscopal effect, PET scan): GM-CSF (Leukine) subcutaneously with oncothermia (and radiotherapy) of the primary tumor only; for Response of the primary (treated) tumor: GM-CSF (Leukine) with oncothermia (and radiotherapy)
Description: A patient was diagnosed with unclassifiable non small cells lung cancer. The classification of the tumor at first diagnosis was cT2N2M0, stage IIIB. Despite of the advanced case the patient refused any treatment. Five months later, they visited outpatient department of complementary and alternative medicine with complaints of hemoptysis and dyspnea on exertion gradually worsened 4 weeks before. They were referred to medical oncology department and admitted for re-evaluation.
The patient had no co-morbidities and no medical history. However, they still refused chemotherapy and together with their family members requested other possible treatment options.
In these circumstances we made radiotherapy in combination with oncothermia and GM-CSF expecting to induce abscopal effect. Local field radiation therapy to lung mass was delivered at a dose of […] in 28 daily fractions for 5-6 treatments in a week. It was followed by oncothermia after radiation 3 times a week. After 2 weeks of oncothermia treatment, GM-CSF (250 microgram, Leukine®, USA) was administered subcutaneously once a day for 10 days. GM-CSF in dose 125 μg/m^2 was given subcutaneously for 14 days after one week of radiotherapy. The result supported that using GM-CSF was feasible and its effect enhanced the immune therapy.

Melanoma = conditions: phase III, 185 patients; cited from earlier work
[2] = tested on: melanoma with lung metastases; assay: Case report, dog treated with oncothermia and low dose Carboplatine (Example 11); type: in vivo, Cocker spaniel; conditions: low dose Carboplatine 2 times (100 mg/m^2) + oncothermia 10 times in 2 weeks on the chest
Protocol: Case No.:11461, Cocker spaniel, 8 years, castrated male,
Diagnosis: melanoma with lung metastases. The primary tumor was situated on the right hind leg and was removed surgically. 5 months later metastases in the lung occurred, at that time we started the treatment.
Oncothermia (10 times in a 2 weeks period)
Low dose Carboplatine 2 times, (100 mg/m^2)
The site of the OTM treatment was on the chest, exactly at the line of the heart.

Leukine®: sargramostim; recombinant granulocyte macrophage colony-stimulating factor
Response of far-distant metastases (abscopal effect, PET scan) [1]: beneficial effect also on the far-distances metastases, which disappear; also recorded: the metastases disappeared
Response of far-distant metastases (abscopal effect, PET scan) ([1]; listed as GM-CSF): nearly complete remission in multiple metastatic lymph nodes; also recorded: successful abscopal effect
Response of the primary (treated) tumor [1]: started to shrink
Response of the primary (treated) tumor ([1]; listed as GM-CSF): shrinking
Adverse effects ([1]; radiotherapy + oncothermia + GM-CSF, end of treatment period): no severe adverse effects except grade 1 fatigue

gp100:209-217(210M): listed under vaccines with peptides (IMDQVPFSV; UniProt P40967 209-217, looked up, variant T210M)
RR and PES (Melanoma): Significant improve-

N.N.O=C([O-])C1(C(=O)[O-])CCC1.[Pt+2] [Carboplatine]
Tumor regression (CT image series) [2]: Significant tumor regression was observed not only at the site of the treatment, but outside of the directly OTM treated area
